Earlier results on one substance are cited in patent publication US9662359B2, “Compositions and methods for treating depression” (Alexander Vuckovic, M.D., LLC, priority 2010, dated 2017).

For the series the following is noted: oral SAMe.

As for S-Adenosyl methionine [SAMe], the half-life entry is “about 100 minutes”.
